PubChem BioAssay AID2060601 (Molecular Pharmacology Branch, DTP, NCI, 2025)
Blank lines part the entries; values can stand above or below the molecule they belong to.

System: 874868-142-R-J2-PDC complex spheroids, growth % test/control
Experiment: Anticancer human tumor 874868-142-R-J2-PDC patient-derived head and neck squamous carcinoma cell line growth inhibition [CLK]
Details: for IC50: curve of first compound; for viability, T/C: stronger effect = lower value
How it was run: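 Multi-cell-type spheroids combined patient-derived tumor cells with HUVEC endothelial cells and human mesenchymal stem cells. Paired agents were dosed in half-log steps down from about clinical Cmax, or from 10 microM where Cmax was unknown.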
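Also: spheroids exposed to the compounds for 7 days.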
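For viability, T/C in this document: 100% = DMSO vehicle control viability.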

SMILES: C=CC(=O)Nc1cc(Nc2nccc(-c3cn(C)c4ccccc34)n2)c(OC)cc1N(C)CCN(C)C + CN1CCN(c2cc(C(=O)Nc3cc4cc(-c5cnn(C)c5)ccc4cn3)ccn2)CC1
IC50 (second compound 0.0316 µM): 0.0519 µM
IC50 (second compound 0.1 µM): 0.0219 µM
IC50 (second compound 0.316 µM): < 0.000949 µM
IC50 (second compound 1 µM): < 0.000949 µM
IC50 (second compound 3.16 µM): < 0.000949 µM
IC50 (second compound 10 µM): < 0.000949 µM
viability, T/C (second compound 0.0316 µM, first compound 0.000949 µM): 84.1%
viability, T/C (second compound 0.0316 µM, first compound 0.003 µM): 90.5%
viability, T/C (second compound 0.0316 µM, first compound 0.00949 µM): 80.3%
viability, T/C (second compound 0.0316 µM, first compound 0.03 µM): 61.9%
viability, T/C (second compound 0.0316 µM, first compound 0.0949 µM): 37.1%
viability, T/C (second compound 0.0316 µM, first compound 0.3 µM): 27.3%
viability, T/C (second compound 0.1 µM, first compound 0.000949 µM): 76%
viability, T/C (second compound 0.1 µM, first compound 0.003 µM): 70.6%
viability, T/C (second compound 0.1 µM, first compound 0.00949 µM): 59.1%
viability, T/C (second compound 0.1 µM, first compound 0.03 µM): 49.6%
viability, T/C (second compound 0.1 µM, first compound 0.0949 µM): 26.8%
viability, T/C (second compound 0.1 µM, first compound 0.3 µM): 22%
viability, T/C (second compound 0.316 µM, first compound 0.000949 µM): 19.2%
viability, T/C (second compound 0.316 µM, first compound 0.003 µM): 16.2%
viability, T/C (second compound 0.316 µM, first compound 0.00949 µM): 19.7%
viability, T/C (second compound 0.316 µM, first compound 0.03 µM): 9.31%
viability, T/C (second compound 0.316 µM, first compound 0.0949 µM): 15.2%
viability, T/C (second compound 0.316 µM, first compound 0.3 µM): 7.92%
viability, T/C (second compound 1 µM, first compound 0.000949 µM): 0.41%
viability, T/C (second compound 1 µM, first compound 0.003 µM): 0.88%
viability, T/C (second compound 1 µM, first compound 0.00949 µM): 1.96%
viability, T/C (second compound 1 µM, first compound 0.03 µM): 0.37%
viability, T/C (second compound 1 µM, first compound 0.0949 µM): 0.71%
viability, T/C (second compound 1 µM, first compound 0.3 µM): 0.79%
viability, T/C (second compound 3.16 µM, first compound 0.000949 µM): 0.27%
viability, T/C (second compound 3.16 µM, first compound 0.003 µM): 0.34%
viability, T/C (second compound 3.16 µM, first compound 0.00949 µM): 0.26%
viability, T/C (second compound 3.16 µM, first compound 0.03 µM): 0.66%
viability, T/C (second compound 3.16 µM, first compound 0.0949 µM): 4.28%
viability, T/C (second compound 3.16 µM, first compound 0.3 µM): 0.48%
viability, T/C (second compound 10 µM, first compound 0.000949 µM): 7.4%
viability, T/C (second compound 10 µM, first compound 0.003 µM): 0.25%
viability, T/C (second compound 10 µM, first compound 0.00949 µM): 3.1%
viability, T/C (second compound 10 µM, first compound 0.03 µM): 0.21%
viability, T/C (second compound 10 µM, first compound 0.0949 µM): 1.3%
viability, T/C (second compound 10 µM, first compound 0.3 µM): 2.16%

IC50 (second compound 0.0316 µM): 3.46 µM
IC50 (second compound 0.1 µM): 3.37 µM
IC50 (second compound 0.316 µM): < 0.0316 µM
IC50 (second compound 1 µM): < 0.0316 µM
IC50 (second compound 3.16 µM): < 0.0316 µM
IC50 (second compound 10 µM): < 0.0316 µM
SMILES: C=C(F)C(=O)N1CCN(c2nc(OCC3CCCN3C)nc3c2CCN(c2cccc4cccc(Cl)c24)C3)CC1CC#N (centres undefined) + CNC(=O)c1ccc(Nc2nc(OC3CCCC3)c3c(-c4ccc5nc(C)oc5c4)c[nH]c3n2)c(OC)c1
viability, T/C (second compound 0.0316 µM, first compound 0.0316 µM): 91.7%
viability, T/C (second compound 0.0316 µM, first compound 0.1 µM): 70.4%
viability, T/C (second compound 0.0316 µM, first compound 0.316 µM): 89.3%
viability, T/C (second compound 0.0316 µM, first compound 1 µM): 68.4%
viability, T/C (second compound 0.0316 µM, first compound 3.16 µM): 56.8%
viability, T/C (second compound 0.0316 µM, first compound 10 µM): 0.28%
viability, T/C (second compound 0.1 µM, first compound 0.0316 µM): 71.2%
viability, T/C (second compound 0.1 µM, first compound 0.1 µM): 68.8%
viability, T/C (second compound 0.1 µM, first compound 0.316 µM): 65.9%
viability, T/C (second compound 0.1 µM, first compound 1 µM): 61.6%
viability, T/C (second compound 0.1 µM, first compound 3.16 µM): 54.6%
viability, T/C (second compound 0.1 µM, first compound 10 µM): 0.63%
viability, T/C (second compound 0.316 µM, first compound 0.0316 µM): 50.5%
viability, T/C (second compound 0.316 µM, first compound 0.1 µM): 49.2%
viability, T/C (second compound 0.316 µM, first compound 0.316 µM): 47.6%
viability, T/C (second compound 0.316 µM, first compound 1 µM): 43.8%
viability, T/C (second compound 0.316 µM, first compound 3.16 µM): 38.5%
viability, T/C (second compound 0.316 µM, first compound 10 µM): 1.18%
viability, T/C (second compound 1 µM, first compound 0.0316 µM): 44.4%
viability, T/C (second compound 1 µM, first compound 0.1 µM): 33%
viability, T/C (second compound 1 µM, first compound 0.316 µM): 36.7%
viability, T/C (second compound 1 µM, first compound 1 µM): 38.5%
viability, T/C (second compound 1 µM, first compound 3.16 µM): 35.2%
viability, T/C (second compound 1 µM, first compound 10 µM): 0.25%
viability, T/C (second compound 3.16 µM, first compound 0.0316 µM): 37.5%
viability, T/C (second compound 3.16 µM, first compound 0.1 µM): 41.8%
viability, T/C (second compound 3.16 µM, first compound 0.316 µM): 31%
viability, T/C (second compound 3.16 µM, first compound 1 µM): 38%
viability, T/C (second compound 3.16 µM, first compound 3.16 µM): 32.2%
viability, T/C (second compound 3.16 µM, first compound 10 µM): 7.83%
viability, T/C (second compound 10 µM, first compound 0.0316 µM): 36.1%
viability, T/C (second compound 10 µM, first compound 0.1 µM): 35.1%
viability, T/C (second compound 10 µM, first compound 0.316 µM): 38.1%
viability, T/C (second compound 10 µM, first compound 1 µM): 39.1%
viability, T/C (second compound 10 µM, first compound 3.16 µM): 31.1%
viability, T/C (second compound 10 µM, first compound 10 µM): 3.95%
